# Data published in patent US5250673A, “2'-deoxy-5-substituted uridine derivatives” (priority 1983, dated 1993).
# Read-outs that look alike come from different tables or passages of the source.
# Experiments:
# Sarcoma 180 [1] = experiment: antitumor activity: 50% inhibition of tumor enhancement, Sarcoma 180 transplanted in mice; format: in vivo, mouse; settings: oral, once a day, 7 days, male ICR/JCL mice, tumor weight day 10
# Experimental: (a) Method for determining of antitumor activity value
# 5×10^6 Cells of mouse-transplantable tumor Sarcoma 180 were transplanted to each male ICR/JCL-strain mouse (having a weight of 27 to 30 g) subcutaneously at the back. Each test compound dissolved or suspended in 0.1% Tween 80^(*) - 0.5% CMC solution was orally administered to various test groups each consisting of 7 mice once a day for 7 consecutive days from the next day of tumor transplanting, in an amount of 1.0 ml of solution or suspension per 100 g weight per day. As to a control group, the same Tween 80-CMC solution containing no test compound was orally administered once a day for 7 consecutive days in an amount of 1.0 ml per 100 g weight per day. (*) (A trademark for a series of surface which is a polyoxyethylene derivative of fatty acid partial ester of sorbitol anhydride, manufactured by I.C.I. U.S., Inc.)
# On the tenth day from the tumor transplanting, an average tumor weight for each administration level of each test compound was determined. This weight was compared with an average tumor weight in control group, and the ratio of tumor enhancement inhibition at each administration level of each test compound compared with control group was calculated. From these calculations, the administration level of each test compound at which the ratio of tumor enhancement inhibition become 50% was obtained and the level (amount) was taken as the antitumor activity value of each compound.
# [2] = reported in literature; cited from earlier work
# [3] = toxicity value: 50% inhibition of weight increase of test animal (Sarcoma 180 tumor-transplanted mice); format: in vivo, mouse; settings: oral, once a day, 7 days, male ICR/JCL mice; for TD50 at 240 h: mouse, sarcoma 180 bearing mice, read-out: Toxicity value (B) Administration amount of test compound at which weight increase of test animal is inhibited by 50% compared with that of control group
# Experimental: (b) Method for determining toxicity value
# Hitherto, toxicity values of anti-malignant tumor agents have been calculated on the bases of LD50 of test animals, in most cases. […] Therefore, in the present test, accumulated toxicity, which well represents the toxicity of anti-malignant tumor agents, was focused on and, as an indication for sensitive detection of the accumulated toxicity, inhibition of weight increase of test animal was measured. That is, when antitumor activity value was determined in the above item (a), the weight of each mouse of each test groups for each test compounds was measured daily from the day of tumor transplanting, immediately before administration.
# On the day of tumor weight measurement, the average net weight increase of each mouse of each test groups for each test compounds from the day of tumor transplanting was measured. These increases were compared with the average net weight increase of control group and the ratio of net weight increase of each test groups of each test compounds to that of control group was calculated. From these calculations, there was obtained an addition amount of each test compound at which weight increase is inhibited by 50% compared with that of control group, and that amount was taken as a toxicity value of each compound.
# [4] = relative to 5-FU; cited from earlier work
# nucleosidephosphorylase = settings: administered in vivo; cited from earlier work
# [5] = compared with 5-FU; cited from earlier work
# Sarcoma 180 [6] = experiment: calculation of therapeutic index (B)/(A), Sarcoma 180 mice; format: in vivo, mouse; parameters: key: C = toxicity value (B) / antitumor activity value (A); settings: oral, once a day, 7 days
# Experimental: (c) Calculation of therapeutic index
# By the use of the antitumor activity value (hereinafter referred to as A) and the toxicity value (hereinafter referred to as B) of each compound, which were obtained in the above items (a) and (b), respectively, therapeutic index (hereinafter referred to as C) was calculated in accordance with the following equation.
# Therapeutic index (C)=^(B)(A)
# [7] = in vivo; cited from earlier work
# [8] = compared with 5-FU; cited from earlier work; remark: listed apart in the source
# [9] = administration limited to intraarterial injection; cited from earlier work
smiles,measurement,setting,value
"O=c1[nH]c(=O)n([C@H]2C[C@H](O)[C@@H](CO)O2)cc1C(F)(F)F [F3 TdR, 2'-Deoxy-5-trifluoromethyl uridine, reference compound]",Antitumor activity value (A) Administration amount of test compound at which tumor enhancement is inhibited by 50% compared with that of control group,Sarcoma 180 [1]; Table 1-a,68 mg/kg/day
same,Antitumor activity value (A) Administration amount of test compound at which tumor enhancement is inhibited by 50% compared with that of control group,Sarcoma 180 [1]; Table 1-b,58 mg/kg/day
same,antitumor activity,[2],has an antitumor activity
same,Toxicity value (B) Administration amount of test compound at which weight increase of test animal is inhibited by 50% compared with that of control group,"[3]; Table 1-a, 14400 min",49 mg/kg/day
same,TD50 at 240 h,[3]; Table 1-b,40 mg/kg
"O=c1[nH]c(=O)n([C@H]2C[C@H](O)[C@@H](CO)O2)cc1F [FudR, 2'-deoxy-5-fluorouridine]",carcinostatic activity in vitro,[4],about 100 times that of 5-fluorouracil
same,Antitumor activity value (A) Administration amount of test compound at which tumor enhancement is inhibited by 50% compared with that of control group,Sarcoma 180 [1]; Table 1-c,93 mg/kg/day
same,decomposition into 5-FU by nucleosidephosphorylase,nucleosidephosphorylase,easily decomposed into 5-FU by nucleosidephosphorylase
same,conversion in vivo into active form,[5],more easily than 5-FU
same,Therapeutic index (C) = (B)/(A),Sarcoma 180 [6]; Table 1-c,0.76
same,TD50 at 240 h,[3]; Table 1-c,71 mg/kg
same,excretion,[7],excreted very quickly
same,prolonged action in blood,[7],poor prolonged action in blood
same,carcinostatic effect,[8],inferior to 5-FU in carcinostatic effect
same,toxicity as a medicine,[9],very toxic
"COc1ccc(CO[C@H]2C[C@H](n3cc(C(F)(F)F)c(=O)[nH]c3=O)O[C@@H]2CO)cc1 [Compound 18, 2'-deoxy-3'-O-(4-methoxybenzyl)-5-trifluoromethyluridine]",Antitumor activity value (A) Administration amount of test compound at which tumor enhancement is inhibited by 50% compared with that of control group,Sarcoma 180 [1]; Table 1-a,52 mg/kg/day
same,Therapeutic index (C) = (B)/(A),Sarcoma 180 [6]; Table 1-a,1.15
same,TD50 at 240 h,[3]; Table 1-a,60 mg/kg
"Cc1cccc(COC[C@H]2O[C@@H](n3cc(C(F)(F)F)c(=O)[nH]c3=O)C[C@@H]2O)c1 [Compound 15, 2'-deoxy-5'-O-(3-methylbenzyl)-5-trifluoromethyluridine]",Antitumor activity value (A) Administration amount of test compound at which tumor enhancement is inhibited by 50% compared with that of control group,Sarcoma 180 [1]; Table 1-a,24 mg/kg/day
same,Therapeutic index (C) = (B)/(A),Sarcoma 180 [6]; Table 1-a,1.71
same,TD50 at 240 h,[3]; Table 1-a,41 mg/kg
